Series [1] deals with Aspergillus fumigatus. Description: Potency index, ratio of amphotericin B MIC to compound MIC for Aspergillus fumigatus RCMB 02568. The series is classed as functional.
The test system of another series is NCI/ADR-RES. Description: Growth inhibition of human NCI/ADR-RES cells assessed as cell growth at 10^-5 M incubated for 48 hrs by sulforhodamine B assay relative to control. The format is cell-based. Also on record: scale not given: the % may be the effect or the level left. The following applies: 10 µM.
For another series, the system named is Enterococcus faecium. Description: Antibacterial activity against vancomycin-resistant Enterococcus faecium ATCC 700221 after 24 hrs by serial dilution method. The format is functional. The following applies: ATCC 700221, 24 h.
In the next series the test system is Staphylococcus aureus. Description: Antibacterial activity against methicillin-resistant Staphylococcus aureus ATCC 33592 after 24 hrs by serial dilution method. The following applies: ATCC 33592, 24 h. The format is functional.
Series [2] concerns Aspergillus fumigatus. Description: Antifungal activity against Aspergillus fumigatus RCMB 02568 assessed as diameter of zone inhibition after 48 hrs by agar well diffusion assay. The format is functional. On the technique in general: Agar diffusion results depend on both activity and mobility in agar.
Another series concerns SK-MEL-5. Description: Growth inhibition of human SK-MEL-5 cells assessed as cell growth at 10^-5 M incubated for 48 hrs by sulforhodamine B assay relative to control. The series is classed as cell-based. The following applies: sk-mel-5, 48 h, 10 µM. Also on record: scale not given: the % may be the effect or the level left. (In general: Sulforhodamine B stains cellular protein and so reports cell mass.)

The next series deals with Pseudomonas aeruginosa. Description: Antibacterial activity against Pseudomonas aeruginosa RCMB 010043 assessed as diameter of zone inhibition after 24 hrs by agar well diffusion assay. The series is classed as functional.
The subject of another series is HOP-92. Description: Growth inhibition of human HOP92 cells assessed as cell growth at 10^-5 M incubated for 48 hrs by sulforhodamine B assay relative to control. The format is cell-based. More on the design: scale not given: the % may be the effect or the level left. The following applies: hop-92, 48 h, 10 µM.
A further series relates to HCT-116. Description: Growth inhibition of human HCT116 cells assessed as cell growth at 10^-5 M incubated for 48 hrs by sulforhodamine B assay relative to control. The format is cell-based. More on the design: scale not given: the % may be the effect or the level left. The following applies: hct-116, 48 h, 10 µM.
The test system of the next series is MCF7. Description: Growth inhibition of human MCF7 cells assessed as cell growth at 10^-5 M incubated for 48 hrs by sulforhodamine B assay relative to control. More on the design: scale not given: the % may be the effect or the level left. The series is classed as cell-based. The following applies: mcf7, 48 h, 10 µM.
The test system of series [3] is Aspergillus fumigatus. Description: Potency index, ratio of amphotericin B MIC to compound MIC for antifungal activity against Aspergillus fumigatus RCMB 02568. The format is functional.
In the next series the test system is T47D. Description: Growth inhibition of human T47D cells assessed as cell growth at 10^-5 M incubated for 48 hrs by sulforhodamine B assay relative to control. The following applies: 10 µM. More on the design: scale not given: the % may be the effect or the level left. The series is classed as cell-based.

The source of these data is ChEMBL document CHEMBL4308854, “Novel indole-thiazolidinone conjugates: Design, synthesis and whole-cell phenotypic evaluation as a novel class of antimicrobial agents” (Eur J Med Chem, 2018).

The MIC is the least concentration at which growth counts as inhibited.

Converted amounts (≈) assume the structure as drawn.

Regarding `CC(=O)c1sc(/N=C2\NC(=O)/C(=C3/C(=O)N(C)c4ccc(Cl)cc43)S2)nc1C`, the Ratio in the series with Aspergillus fumigatus [1] and in the series with Aspergillus fumigatus [3] was 2 each time. The Activity was 99.92% with NCI/ADR-RES; 97.1% in the series with SK-MEL-5; 95.24% with HOP-92; 94.04% with HCT-116; 86.13% in the series with MCF7; 106.34% with T47D. Moreover, the minimal inhibitory concentration (MIC) with Enterococcus faecium amounted to 7.81 µg/mL (≈ 18 µM); against Staphylococcus aureus, 3.9 µg/mL (≈ 9.01 µM). The “diameter of the inhibition zone (DIZ)” value in the series with Aspergillus fumigatus [2] and in the series with Pseudomonas aeruginosa was 22.2 mm each time.
`CCOC(=O)c1sc(/N=C2\NC(=O)/C(=C3/C(=O)N(Cc4ccccc4)c4ccc(Cl)cc43)S2)nc1C`: the Activity amounted to 101.26% in the series on NCI/ADR-RES; 101.5% in the series on SK-MEL-5; 92.11% with HOP-92; 96.07% in the series on HCT-116; 97.06% in the series with MCF7; 96.84% with T47D. Also, the “diameter of the inhibition zone (DIZ)” value is recorded as 21.3 mm in the series with Aspergillus fumigatus [2] and 22.3 mm in the series with Pseudomonas aeruginosa.
